Patent publication US12435077B2, “Oxazolidinone compound and methods of use thereof as an antibacterial agent” (priority 2020, dated 2025)

What was measured:
[1] = tested on: mitochondrial protein synthesis in HepG2 cells; test: Mitochondrial protein synthesis assay; format: cell-based; settings: Homo sapiens, 96 h, 4 days, COX-I vs SDH-A / Janus Green, read-out: MPS IC50
Protocol: Inhibition of mitochondrial protein synthesis was assessed in HepG2 cells by comparing the levels of two subunits of oxidative phosphorylation enzyme complexes, subunit I of Complex IV (COX-I) and the 70 kDa subunit of Complex II (SDH-A). COX-I is mitochondrial DNA encoded and SDH-A is nuclear DNA encoded.

[2] = tested on: Mycobacterium tuberculosis (Mtb-GFP; H37Rv pMSP12::GFP); format: cell-based; settings: pH 6.8, 7-day growth, 95% growth inhibition; for Mtb Cho MITC95: cholesterol as carbon source; for Mtb Glu MITC95: glucose as carbon source
in vivo [3] = settings: male, dog, iv
Protocol: Plasma pharmacokinetic parameters for clearance, volume of distribution, half-life, mean residence time (MRT) and oral bioavailability were determined in dogs from oral administration and IV administration studies. Four male dogs, typically weighing 8-12 kilograms, were fasted overnight prior to dosing. Compounds were prepared for oral and IV dosing by addition to a vehicle, depending on the dose used. For a typical preparation, 1 mg per mL (IV) or 1.5 mg per mL (oral) of test compound was added to vehicle comprised of 20% dimethyl sulfoxide (DMSO), 60% polyethylene glycol 400 (PEG400) and 20% water. IV formulation was administered to two dogs via the saphenous or cephalic vein, and oral dosing was administered to two dogs via oral gavage. Blood was collected by the cephalic or jugular vein, typically at predose, 2, 8, 15, 30 mins, 1, 2, 4, 6, 8 and 24 hours post-dose for IV, and at predose, 15, 30 mins, 1, 2, 4, 6, 8, and 24 hours for oral dosing. Samples were collected in K2EDTA tubes, stored on ice, and centrifuged. Plasma was transferred to a micro titer plate and stored at −70° C. until analysis. Plasma samples were extracted using protein precipitation and analyzed by liquid chromatography separation followed by mass spec detection (LC-MS/MS), using a standard curve for each compound. Plasma pharmacokinetic parameters were calculated for IV and oral dosing data by non-compartmental methods. Oral bioavailability was determined as the ratio of the dose-normalized plasma area under the curve (AUC) following oral dosing verses IV dosing. Plasma pharmacokinetic parameters for clearance, volume of distribution, half-life, and mean residence time (MRT) were determined in dogs from IV cassette administration studies. Two male dogs, typically weighing 8-12 kilograms, were fasted overnight prior to dosing. Compounds were prepared for IV dosing by addition to a vehicle, depending on the dose used. For a typical preparation, 1 mg per mL (IV) of up to 5 test compounds were added to vehicle comprised of 20% dimethyl sulfoxide (DMSO), 60% polyethylene glycol 400 (PEG400) and 20% water. IV formulation was administered to two dogs via the saphenous or cephalic vein. Blood was collected by the cephalic or jugular vein, typically at predose, 2, 8, 15, 30 mins, 1, 2, 4, 6, 8 and 24 hours post-dose. Samples were collected in K2EDTA tubes, stored on ice, and centrifuged. Plasma was transferred to a micro titer plate and stored at −70° C. until analysis. Plasma samples were extracted using protein precipitation and analyzed by liquid chromatography separation followed by mass spec detection (LC-MS/MS), using a standard curve for each compound. Plasma pharmacokinetic parameters were calculated by non-compartmental methods.

[4] = Plasma protein binding, dog plasma; format: in vitro ADME
Protocol: (§1) Binding of compounds to plasma proteins from rat and dog was determined by equilibrium dialysis of the appropriate species plasma at 37° C. for 4 hours in the presence of 2.5 uM of test compound. Plasma samples were precipitated and separated by centrifugation. The supernatant was analyzed by mass spec detection (LC-MS/MS), using a standard curve for each compound. The fraction of unbound compound was calculated per the following: • Fraction Unbound (fu)=Peak Area Ratiobuffer/Peak Area Ratioplasma • where • Peak Area Ratiobuffer=Peak area ratio of analyte/internal standard in buffer • Peak Area Ratioplasma=Peak area ratio of analyte/internal standard in plasma

[5] = Plasma protein binding, rat plasma; format: in vitro ADME
Protocol: as §1

in vivo [6] = settings: male, rat, iv
Protocol: Plasma pharmacokinetic parameters for clearance, volume of distribution, half-life and oral bioavailability were determined in rats from oral administration and IV administration studies. 4 male rats, typically weighing 225-260 gram, were fasted overnight prior to dosing. Compounds were prepared for oral and IV dosing by addition to a vehicle, depending on the dose used. For a typical preparation, 1 mg per mL (IV) or 1.5 mg per mL (oral) of test compound was added to vehicle comprised of 20% dimethyl sulfoxide (DMSO), 60% polyethylene glycol 400 (PEG400) and 20% water. Intravenous (IV) formulation was administered to two rats via pre-cannulated jugular vein, and oral dosing was administered to two rats via oral gavage. Blood was collected by pre-cannulated artery, typically at predose, 2, 8, 15, 30 min, 1, 2, 4, 6, and 8 hours post-dose for IV, and at predose, 15, 30 mins, 1, 2, 4, 6, 8 hours for oral dosing. Samples were collected in K2EDTA tubes, stored on ice, and centrifuged. Plasma was transferred to a micro titer plate and stored at −70° C. until analysis. Plasma samples were extracted using protein precipitation and analyzed by liquid chromatography separation followed by mass spec detection (LC-MS/MS), using a standard curve for each compound. Plasma pharmacokinetic parameters were calculated for IV and oral dosing data by non-compartmental methods. Oral bioavailability was determined as the ratio of the dose-normalized plasma area under the curve (AUC) following oral dosing vs. IV dosing. Plasma pharmacokinetic parameters for clearance, volume of distribution, half-life and mean residence time (MRT) were determined in rats from IV cassette administration studies. Two male rats typically weighing 225-260 gram, were fasted overnight prior to dosing. Compounds were prepared for IV dosing by addition to a vehicle, depending on the dose used. For a typical preparation, 1 mg per mL (IV) of up to 5 test compounds were added to vehicle comprised of 20% dimethyl sulfoxide (DMSO), 60% polyethylene glycol 400 (PEG400) and 20% water. IV formulation was administered to two rats via pre-cannulated jugular vein. Blood was collected by pre-cannulated artery, typically at predose, 2, 8, 15, 30 mins, 1, 2, 4, 6, and 8 hours postdose. Samples were collected in K2EDTA tubes, stored on ice, and centrifuged. Plasma was transferred to a micro titer plate and stored at −70° C. until analysis. Plasma samples were extracted using protein precipitation and analyzed by liquid chromatography separation followed by mass spec detection (LC-MS/MS), using a standard curve for each compound. Plasma pharmacokinetic parameters were calculated by non-compartmental methods.

[7] = comparison compounds from WO2017/070024, read-out: Dog fu
[8] = comparison compounds from WO2017/070024, read-out: Rat fu

Row | Compound | IC50 [1] | Mtb Cho MITC95 [2] | Mtb Glu MITC95 [2] | MRT (in vivo [3]) | Vd (in vivo [3]) | clearance (in vivo [3]) | fraction unbound at 4 h, 2.5 uM [4, 7] | fraction unbound at 4 h, 2.5 uM [5, 8] | MRT (in vivo [6]) | Vd (in vivo [6]) | clearance (in vivo [6]) | fraction unbound at 4 h, 2.5 uM ([4]; equilibrium dialysis, 37° C., 4 hours, 2.5 uM, read-out: Dog fu) | fraction unbound at 4 h, 2.5 uM ([5]; equilibrium dialysis, 37° C., 4 hours, 2.5 uM, read-out: Rat fu)
1 | CC(=O)NC[C@H]1CN(c2ccc(N3CCOCC3)c(F)c2)C(=O)O1 [linezolid] | 8 µM | 3.14 µM | 4.58 µM |  |  |  |  |  |  |  |  |  | 
2 | NC[C@H]1CN(c2cc(F)c(N3CCOCC3)c(F)c2)C(=O)O1 [Example 59 from WO2017/070024] |  |  |  | 1.3 h | 4.2 L/kg | 53 mL/min/kg | 0.81 | 0.57 | 0.8 h | 2 L/kg | 43 mL/min/kg |  | 
3 | COC(=O)NC[C@H]1CN(c2cc(F)c(N3CCS(=O)(=O)CC3)c(F)c2)C(=O)O1 [Example 1, methyl ({(5S)-3-[4-(1,1-dioxo-1λ^6-thiomorpholin-4-yl)-3,5-difluorophenyl]-2-oxo-1,3-oxazolidin-5-yl}methyl)carbamate] |  | 1.16 µM | 0.71 µM | 12.6 h |  | 1.9 mL/min/kg |  |  | 1.7 h | 0.9 L/kg | 8.5 mL/min/kg | 0.69 | 0.42
4 | NC[C@H]1CN(c2cnc(N3CCS(=O)(=O)CC3)c(F)c2)C(=O)O1 [Example 48 from WO2017/070024] |  |  |  | 1.3 h | 1.5 L/kg | 18 mL/min/kg | 0.87 | 0.83 | 0.5 h | 2.5 L/kg | 85 mL/min/kg |  | 
